Results on 33 compounds are retold here after ChEMBL document CHEMBL1156143, “Structure-activity relationship studies of chalcone leading to 3-hydroxy-4,3',4',5'-tetramethoxychalcone and its analogues as potent nuclear factor kappaB inhibitors and their anticancer activities” (J Med Chem, 2009).

Each structure is given as a SMILES string. Calls of active or inactive are those of the source. The calls are words filed in the database; no cut-off is given here.

Series [1] in a line: Inhibition of TNFalpha induced NF-kappaB activation in human A549 cells by luciferase reporter gene assay. Type of series: cell-based.
Series [2] concerns NCI-H2009. Briefly: Cytotoxicity against human NCI-H2009 cells after 48 hrs by fluorescence assay. Type of series: functional. To be noted: NCI-H2009, 48 h.
For series [3], the system named is A549. Kind of series: Cytotoxicity against human A549 cells after 48 hrs by fluorescence assay. Type of series: functional. Conditions: A549, 48 h.
In series [4] the target is Proto-oncogene tyrosine-protein kinase Src (Homo sapiens) (UniProt P12931). Briefly: Inhibition of c-Src at 10 uM.
The target in series [5] is T1, Inhibitor of nuclear factor kappa-B kinase subunit alpha (Homo sapiens) (UniProt O15111).
T1 sequence (whole entry): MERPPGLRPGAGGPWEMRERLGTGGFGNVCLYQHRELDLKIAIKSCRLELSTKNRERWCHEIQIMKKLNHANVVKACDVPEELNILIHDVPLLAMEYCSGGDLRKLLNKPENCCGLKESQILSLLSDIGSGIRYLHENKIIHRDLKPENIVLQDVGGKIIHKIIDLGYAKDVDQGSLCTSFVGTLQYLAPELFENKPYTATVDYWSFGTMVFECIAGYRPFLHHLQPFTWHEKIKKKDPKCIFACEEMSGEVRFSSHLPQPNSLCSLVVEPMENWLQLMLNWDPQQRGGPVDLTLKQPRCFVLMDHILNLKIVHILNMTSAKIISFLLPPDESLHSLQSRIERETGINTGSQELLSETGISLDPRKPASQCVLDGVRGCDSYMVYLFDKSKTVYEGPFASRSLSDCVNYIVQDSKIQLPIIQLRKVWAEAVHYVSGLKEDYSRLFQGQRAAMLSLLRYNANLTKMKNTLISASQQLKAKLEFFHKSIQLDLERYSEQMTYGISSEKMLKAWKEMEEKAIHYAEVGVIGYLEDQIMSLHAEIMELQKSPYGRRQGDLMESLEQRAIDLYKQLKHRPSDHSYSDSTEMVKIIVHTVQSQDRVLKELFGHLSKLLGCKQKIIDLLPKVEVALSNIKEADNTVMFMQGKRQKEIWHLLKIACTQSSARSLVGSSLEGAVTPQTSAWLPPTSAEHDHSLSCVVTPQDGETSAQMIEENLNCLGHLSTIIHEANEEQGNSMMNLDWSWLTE
Kind of series: Inhibition of IKKalpha at 10 uM.

For series [6], the target named is T2, Inhibitor of nuclear factor kappa-B kinase subunit beta (Homo sapiens) (UniProt O14920).
T2 sequence (whole entry): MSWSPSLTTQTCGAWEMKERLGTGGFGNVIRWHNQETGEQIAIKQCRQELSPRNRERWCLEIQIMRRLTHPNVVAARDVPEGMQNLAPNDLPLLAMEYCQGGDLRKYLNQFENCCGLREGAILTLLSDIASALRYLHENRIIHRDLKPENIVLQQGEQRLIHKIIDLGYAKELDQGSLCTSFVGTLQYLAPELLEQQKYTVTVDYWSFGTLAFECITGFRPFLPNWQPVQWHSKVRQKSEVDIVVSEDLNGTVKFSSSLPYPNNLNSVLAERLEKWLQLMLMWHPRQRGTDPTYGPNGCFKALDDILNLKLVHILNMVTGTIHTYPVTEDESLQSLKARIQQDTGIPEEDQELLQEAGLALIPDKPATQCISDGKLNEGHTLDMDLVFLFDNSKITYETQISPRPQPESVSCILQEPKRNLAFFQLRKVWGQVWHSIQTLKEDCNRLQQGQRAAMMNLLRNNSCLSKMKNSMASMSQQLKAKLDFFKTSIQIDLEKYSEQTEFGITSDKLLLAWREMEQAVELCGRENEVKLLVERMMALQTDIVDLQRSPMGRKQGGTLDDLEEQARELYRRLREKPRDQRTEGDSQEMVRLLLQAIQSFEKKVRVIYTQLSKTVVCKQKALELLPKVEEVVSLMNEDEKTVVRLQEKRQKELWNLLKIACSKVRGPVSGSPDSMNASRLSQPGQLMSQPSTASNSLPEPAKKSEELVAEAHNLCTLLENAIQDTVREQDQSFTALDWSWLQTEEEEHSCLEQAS
Briefly: Inhibition of IKK-beta at 10 uM.

Series [7] has as its target Interleukin-1 receptor-associated kinase 1 (Homo sapiens) (UniProt P51617). Briefly: Inhibition of IRAK1 at 10 uM.
Series [8] has as its target T3, Interleukin-1 receptor-associated kinase 4 (Homo sapiens) (UniProt Q9NWZ3).
T3 sequence (whole entry): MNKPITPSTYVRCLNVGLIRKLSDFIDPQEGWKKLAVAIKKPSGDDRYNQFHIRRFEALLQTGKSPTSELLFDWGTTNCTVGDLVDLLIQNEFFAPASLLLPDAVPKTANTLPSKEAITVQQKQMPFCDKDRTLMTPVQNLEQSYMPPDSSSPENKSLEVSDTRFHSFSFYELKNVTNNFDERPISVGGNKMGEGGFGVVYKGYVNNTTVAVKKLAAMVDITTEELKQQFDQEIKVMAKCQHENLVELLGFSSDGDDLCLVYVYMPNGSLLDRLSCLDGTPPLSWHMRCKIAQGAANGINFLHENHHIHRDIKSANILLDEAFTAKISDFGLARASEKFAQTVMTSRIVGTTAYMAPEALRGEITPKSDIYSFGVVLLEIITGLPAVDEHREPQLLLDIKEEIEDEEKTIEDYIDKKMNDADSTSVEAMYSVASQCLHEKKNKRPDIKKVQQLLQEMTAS
Briefly: Inhibition of IRAK4 at 10 uM.

The subject of series [9] is Mus musculus. Kind of series: Toxicity in SCID mouse xenografted with human NCI-H2009 cells at 1 mg/day, ip treated 6 days in a week for 5 weeks. To be noted: in vivo. Type of series: organism-based.
Series [10] deals with Mus musculus. Kind of series: Toxicity in SCID mouse xenografted with human NCI-H2009 cells assessed as increase in body weight at 1 mg/day, ip treated 6 days in a week for 5 weeks. Type of series: organism-based. Conditions: in vivo.
Series [11] relates to Mus musculus. Briefly: Toxicity in SCID mouse xenografted with human NCI-H2009 cells assessed as necropsy at 1 mg/day, ip treated 6 days in a week for 5 weeks. Type of series: organism-based. To be noted: in vivo.
The test system of series [12] is NCI-H2009. Briefly: Anticancer activity against human NCI-H2009 cells xenografted in SCID mouse assessed as suppression of tumor growth at 1 mg/day, ip treated 6 days in a week for 5 weeks. Type of series: functional.
Series [13] has as its target Mitogen-activated protein kinase kinase kinase 7 (TAK1) (Homo sapiens) (UniProt O43318). Briefly: Inhibition of TAK1 at 10 uM.

Sequence of Mitogen-activated protein kinase kinase kinase 7 (TAK1) (Homo sapiens) (O43318 whole entry, looked up): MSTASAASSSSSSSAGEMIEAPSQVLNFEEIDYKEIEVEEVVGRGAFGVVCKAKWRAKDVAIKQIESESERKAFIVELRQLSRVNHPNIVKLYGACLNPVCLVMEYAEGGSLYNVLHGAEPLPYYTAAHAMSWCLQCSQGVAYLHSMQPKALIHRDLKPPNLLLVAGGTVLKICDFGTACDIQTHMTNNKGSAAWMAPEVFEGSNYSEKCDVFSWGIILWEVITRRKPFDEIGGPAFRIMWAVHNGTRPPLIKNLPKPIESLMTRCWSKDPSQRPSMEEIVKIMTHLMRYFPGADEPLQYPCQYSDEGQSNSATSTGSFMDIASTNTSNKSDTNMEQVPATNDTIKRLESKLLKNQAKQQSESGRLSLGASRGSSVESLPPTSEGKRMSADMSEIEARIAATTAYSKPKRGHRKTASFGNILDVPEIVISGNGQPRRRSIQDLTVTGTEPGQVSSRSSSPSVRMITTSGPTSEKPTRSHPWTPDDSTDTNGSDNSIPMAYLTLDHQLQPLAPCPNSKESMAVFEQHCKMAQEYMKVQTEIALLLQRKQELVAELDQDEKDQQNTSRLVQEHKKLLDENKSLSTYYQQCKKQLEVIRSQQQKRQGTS
Sequence of Interleukin-1 receptor-associated kinase 1 (Homo sapiens) (P51617 whole entry, looked up): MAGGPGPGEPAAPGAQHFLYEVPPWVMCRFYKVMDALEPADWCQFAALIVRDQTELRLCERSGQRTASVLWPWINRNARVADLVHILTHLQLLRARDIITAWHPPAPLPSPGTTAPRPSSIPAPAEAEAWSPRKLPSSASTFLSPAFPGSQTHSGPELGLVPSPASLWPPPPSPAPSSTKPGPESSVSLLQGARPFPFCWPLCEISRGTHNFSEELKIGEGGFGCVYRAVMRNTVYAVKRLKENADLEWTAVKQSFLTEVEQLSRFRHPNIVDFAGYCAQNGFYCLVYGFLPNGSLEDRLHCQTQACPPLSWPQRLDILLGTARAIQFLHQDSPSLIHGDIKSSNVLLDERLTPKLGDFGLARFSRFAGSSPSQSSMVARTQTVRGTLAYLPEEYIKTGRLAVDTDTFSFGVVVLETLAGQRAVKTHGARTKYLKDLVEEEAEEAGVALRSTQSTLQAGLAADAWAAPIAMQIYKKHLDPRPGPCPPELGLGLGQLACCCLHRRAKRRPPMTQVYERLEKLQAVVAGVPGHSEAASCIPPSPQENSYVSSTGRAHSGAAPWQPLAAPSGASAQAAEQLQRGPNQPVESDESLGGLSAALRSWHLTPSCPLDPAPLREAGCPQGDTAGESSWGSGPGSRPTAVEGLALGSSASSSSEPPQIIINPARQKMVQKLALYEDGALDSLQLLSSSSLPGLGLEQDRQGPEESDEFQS
Sequence of Proto-oncogene tyrosine-protein kinase Src (Homo sapiens) (P12931 2-536 limits assumed): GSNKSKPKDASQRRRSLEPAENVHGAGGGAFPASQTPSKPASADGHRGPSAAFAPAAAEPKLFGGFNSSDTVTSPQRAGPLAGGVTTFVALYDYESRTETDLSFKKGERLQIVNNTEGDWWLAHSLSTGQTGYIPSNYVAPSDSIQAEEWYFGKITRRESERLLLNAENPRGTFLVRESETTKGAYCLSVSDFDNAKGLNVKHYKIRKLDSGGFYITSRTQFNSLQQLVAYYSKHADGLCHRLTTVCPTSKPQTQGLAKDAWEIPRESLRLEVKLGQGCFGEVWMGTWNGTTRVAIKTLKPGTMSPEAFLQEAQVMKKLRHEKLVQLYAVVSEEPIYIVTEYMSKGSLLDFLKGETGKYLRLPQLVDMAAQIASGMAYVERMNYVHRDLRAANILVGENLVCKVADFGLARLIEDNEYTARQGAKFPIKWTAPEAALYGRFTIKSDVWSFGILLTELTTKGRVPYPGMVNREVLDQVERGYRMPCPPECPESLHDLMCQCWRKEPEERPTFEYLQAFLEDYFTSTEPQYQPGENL

In series [1], `COc1cc(O)c(C(=O)/C=C/c2cccc(C)c2)c(OC)c1` registered an IC50 of 17 µM.

In series [1], `COc1ccc(/C=C/C(=O)c2cc(OC)c(OC)c(OC)c2)cc1OCCN` returned a half-maximal inhibitory concentration (IC50) of 5.9 µM. The concentration for 50% growth inhibition (GI50) in series [2] was determined as 3.6 µM; in series [3], 5.6 µM.

In series [1], `O=C(/C=C/c1ccc(O)cc1)c1ccc(O)cc1O` [ISOLIQUIRITIGENIN] yielded an IC50 of more than 20 µM.

Take `COc1cc(C(=O)/C=C/c2ccc(O)cc2)cc(OC)c1OC`: the half-inhibitory concentration (IC50) in series [1] was 11.6 µM. The concentration for 50% growth inhibition (GI50) in series [2] was determined as 4.5 µM; in series [3], 8.5 µM.

On to `COc1ccc(/C=C/C(=O)c2c(O)cc(OC)cc2OC)cc1` [FLAVOKAWAIN A], for which, in series [1], the IC50 is more than 20 µM.

As for `COc1ccc(/C=C/C(=O)c2cc(OC)c(OC)c(OC)c2)cc1`, half-maximal inhibition in series [1] (IC50) was put at 19.3 µM. Further, the 50% growth inhibitory concentration (GI50) was 8.4 µM in [2] and 12.4 µM in [3].

The compound `COc1cc(O)c(C(=O)/C=C/c2ccccc2C)c(OC)c1` came in with an IC50 in series [1] of more than 20 µM.

In the case of `O=C(/C=C/c1ccccc1)c1ccc(F)c(F)c1`, the half-maximal inhibitory concentration (IC50) in series [1] was more than 20 µM.

With `COc1cc(O)c(C(=O)/C=C/c2ccc(OC)c(C)c2)c(OC)c1`, the IC50 in series [1] was more than 20 µM.

In [1], `CCCOc1ccc(/C=C/C(=O)c2c(O)cc(OC)cc2OC)cc1` returned an IC50 of more than 20 µM.

In series [1], `COc1ccc(/C=C/C(=O)c2ccc(OC)c(OC)c2)cc1O` had a half-maximal inhibitory concentration (IC50) of 8 µM. Further, the 50% growth inhibitory concentration (GI50) in series [2] was determined as 4.6 µM; in series [3] it was 5.2 µM.

As to `COc1cc(O)c(C(=O)/C=C/c2cccc(Br)c2)c(OC)c1`, the half-inhibitory concentration (IC50) in series [1] is 12.3 µM.

As for `COc1cc(O)c(C(=O)/C=C/c2ccc(OC)c(O)c2)c(OC)c1`, the 50% inhibitory concentration (IC50) in series [1] was more than 20 µM.

On to `O=C(/C=C/c1ccccc1)c1ccc(F)cc1`, for which, in [1], the concentration for half-maximal inhibition (IC50) is more than 20 µM.

In turn, `COc1ccc(CCC(=O)c2cc(OC)c(OC)c(OC)c2)cc1O` came in with a concentration for half-maximal inhibition (IC50) in [1] of more than 20 µM. The GI50 in [2] was found to be 47 µM; in series [3], 17.6 µM.

With `COc1cc(OC)cc(C(=O)/C=C/c2ccc(OC)c(O)c2)c1`, in [1], the IC50 was found to be 8.1 µM. Also, the 50% growth inhibitory concentration (GI50) in [2] stood at 2.3 µM; in [3] it was 3.3 µM.

In turn, `COc1ccc(/C=C/C(=O)c2cc(OC)c(O)c(OC)c2)cc1O` displayed an IC50 in [1] of 14.7 µM. Moreover, the GI50 in series [2] came to 7.5 µM; in [3] it was 4 µM.

In turn, `Cc1ccc(C(=O)/C=C/c2ccccc2)cc1` came in with a 50% inhibitory concentration (IC50) in [1] of more than 20 µM.

Regarding `O=C(/C=C/c1ccccc1)c1ccccc1` [CHALCONE], the IC50 in [1] was more than 20 µM.

As for `O=C(/C=C/c1ccc(O)cc1)c1ccccc1` [4-HYDROXYCHALCONE], the half-inhibitory concentration (IC50) in series [1] is more than 20 µM.

Compound `COc1cc(C(=O)/C=C/c2ccc(O)c(O)c2)cc(OC)c1OC` had an IC50 in [1] of 1.9 µM. Further, the figures for the GI50 in series [2] and in series [3] were 1.1 µM and 2.6 µM, respectively.

The compound `O=C(/C=C/c1ccccc1)c1ccc(C(F)(F)F)cc1` came in with an IC50 in series [1] of more than 20 µM.

`COc1ccc(/C=C/C(=O)c2cc(OC)c(OC)c(OC)c2)cc1OCCO` returned an IC50 in [1] of 9.1 µM. The figures for the GI50 in series [2] and in [3] were 3.3 µM and 4.7 µM, respectively.

Take `COc1cc(C(=O)/C=C/c2ccccc2)cc(OC)c1OC`: the IC50 in series [1] is 8.9 µM. The 50% growth inhibitory concentration (GI50) in [2] was 6.6 µM; in [3], 8.8 µM.

In [1], `O=C(/C=C/c1ccc(O)c(O)c1)c1ccc(O)cc1O` [BUTEIN] registered a 50% inhibitory concentration (IC50) of more than 20 µM.

Compound `COc1cc(O)c(C(=O)/C=C/c2ccccc2Br)c(OC)c1` gave an IC50 in [1] of more than 20 µM.

Compound `COc1cc(O)c(C(=O)/C=C/c2ccccc2)c(OC)c1` [FLAVOKAWAIN B] yielded a half-inhibitory concentration (IC50) in series [1] of more than 20 µM.

For `COc1cc(O)c(C(=O)/C=C/c2cc(OC)c(OC)c(OC)c2)c(OC)c1`, in series [1], the half-inhibitory concentration (IC50) is more than 20 µM.

In [1], `O=C(/C=C/c1ccccc1)c1ccccc1O` [2'-HYDROXYCHALCONE] displayed an IC50 of more than 20 µM.

In turn, `COc1ccc(/C=C/C(=O)c2cc(OC)c(OC)c(OC)c2)cc1O` returned a half-inhibitory concentration (IC50) in series [1] of 5.1 µM. In addition, the inhibition entry in series [4], in series [5], in series [7] and in series [13] was “inactive” each time. Moreover, the inhibition in series [6] was found to be 46%; in [8], 41%. Also, the figures for the GI50 in [2] and in series [3] were 5.2 µM and 2.1 µM, respectively. Further, the Activity result in series [9] is on record as “Non-toxic”; in series [10] it was “Non-toxic”; in series [11] it was “Non-toxic”; in [12] it was 57%.

Regarding `COc1cc(C(=O)/C=C/c2cccc(O)c2)cc(OC)c1OC`, it took 2.3 µM to reach half-maximal inhibition in series [1] (IC50). In addition, the 50% growth inhibitory concentration (GI50) amounted to 4.2 µM in [2] and 1.7 µM in series [3].

With `COc1cc(O)c(C(=O)/C=C/c2ccc(Cl)cc2)c(OC)c1`, in series [1], the IC50 was more than 20 µM.

For `COc1cc(O)c(C(=O)/C=C/c2ccc(F)cc2)c(OC)c1`, the half-inhibitory concentration (IC50) in [1] is more than 20 µM.
